Measurements taken from patent US8414938B2, “Schisandrae fructus extracts for inhibition or prevention of H1N1 influenza virus infection and its application thereof” (National Defense Medical Center, priority 2011, dated 2013).
In brackets after ≈: the same amount, converted by molar mass.

test system: H1N1-TR (Tamiflu resistant virus strain); assay: microbe, parasite or virus in culture; assay type: cell-based; conditions: unidentified influenza virus, H1N1, read-out: MIC, H1N1-TR

`COc1cc([C@@H]2c3cc(OC)c(O)cc3C(=O)[C@H](C)[C@H]2C)ccc1O` [Epiwulignan A1] and `COc1cc([C@@H]2c3cc(OC)c(O)cc3C(=O)[C@@H](C)[C@H]2C)ccc1O` [Wulignan A1] are the same in MIC: 12.5 µg/mL (≈ 36.5 µM) for the first, 12.5 µg/mL (≈ 36.5 µM) for the second.

Compared with `C/C=C(\C)C(=O)O[C@H]1c2cc(OC)c(OC)c(OC)c2-c2c(cc3c(c2OC)OCO3)C[C@H](C)[C@@]1(C)O` (atropisomer, axis not shown) [Tigloylgomisin P], `COc1cc2c(c(OC)c1OC)-c1c(cc3c(c1OC)OCO3)C[C@H](C)[C@@](C)(O)[C@H]2OC(=O)c1ccccc1` (atropisomer, axis not shown) [Benzoylgomisin P] is 6-fold lower in MIC: 75 µg/mL (≈ 146 µM) for the first, 12.5 µg/mL (≈ 23.3 µM) for the second.

Compared with `NC(=O)c1ncn([C@@H]2O[C@H](CO)[C@@H](O)[C@H]2O)n1` [Ribavirin, ribavirin, reference compound], `COc1cc2c(cc1O)C(=O)[C@@H](C)[C@@H](C)[C@@H]2c1ccc(OC)c(OC)c1` [Schisandrone] is 2-fold higher in MIC: 3.12 µg/mL (≈ 12.8 µM) for the first, 6.25 µg/mL (≈ 17.5 µM) for the second.
